Data: ChEMBL document CHEMBL6121023, “Discovery of proteolytically stable monocyte locomotion inhibitory factor peptide through systematic structural optimization” (Eur J Med Chem, 2025)
Active and inactive are the calls of the source. No cut-off for these calls is given here. Positions of bridges follow the written chain, without caps; N, C: chain ends. Non-standard residues stand in square brackets, D forms with d. Residues, ends and D or L forms follow the SMILES beside them. ξ: configuration not given here. *: point of attachment. Propanoyl(3-(MeO(CH2CH2O)2)) = COCCOCCOCCC(=O)*; X1 = COCCOCCOCCOCCOCCOCCOCCC(=O)*; NMeQ = CN[C@@H](CCC(N)=O)C(=O)O; NMeN = CN[C@@H](CC(N)=O)C(=O)O; X2 = COCCOCCOCCOCCOCCC(=O)*; NMeC = CN[C@@H](CS)C(=O)O; NMeS = CN[C@@H](CO)C(=O)O; Heptanoyl = CCCCCCC(=O)*; Orn = NCCC[C@H](N)C(=O)O; ξNMeM = CNC(CCSC)C(=O)O; Pentanoyl = CCCCC(=O)*; ξM = CSCCC(N)C(=O)O

Legend:
RAW264.7 [1] = assay: Antiinflammatory activity in LPS-induced mouse RAW264.7 cells assessed as inhibition of TNF-alpha expression at 1 microg/ml preincubated with compound for 24 hrs followed by LPS addition for 6 hrs by ELISA method; format: functional, cell-based; details: dose 1.0 µg/ml, time 30.0 hrs
RAW264.7 [2] = assay: Antiinflammatory activity in LPS-induced mouse RAW264.7 cells assessed as […] in IL-1beta expression at 1 microg/ml preincubated with compound for 24 hrs followed by LPS addition for 6 hrs by ELISA method; format: functional, cell-based; details: dose 1.0 µg/ml, time 30.0 hrs
RAW264.7 [3] = assay: Antiinflammatory activity in LPS-induced mouse RAW264.7 cells assessed as inhibition of NO expression at 1 microg/ml preincubated with compound for 24 hrs followed by LPS addition for 6 hrs by DAF-FM diacetate probe based analysis; format: functional, cell-based; details: dose 1.0 µg/ml, time 30.0 hrs
[4] = Cytotoxicity against mouse RAW264.7 cells assessed as cell viability at 1 microg/ml measured after 24 hrs by CCK-8 assay; format: toxicity, cell-based; details: at 1 µg/mL, read-out: Activity
RAW264.7 [5] = assay: Antiinflammatory activity in LPS-induced mouse RAW264.7 cells assessed as inhibition of NO generation at 1 microg/ml preincubated with compound for 24 hrs followed by LPS addition for 6 hrs by DAF-FM diacetate probe based analysis; format: functional, cell-based; details: dose 1.0 µg/ml
Mus musculus [6] = assay: Anti-inflammatory activity against collagenase-induced osteoarthritis C57BL/6J mouse model assessed as improvement in cartilage thickness at 1 mg/kg, ip measured on day 14 by H and E staining based analysis; format: functional, organism-based; details: time 14.0 day
RAW264.7 [7] = assay: Antiinflammatory activity in LPS-induced mouse RAW264.7 cells assessed as inhibition of IL-1beta expression at 1 microg/ml preincubated with compound for 24 hrs followed by LPS addition for 6 hrs by ELISA method; format: functional, cell-based; details: dose 1.0 µg/ml, time 30.0 hrs
RAW264.7 [8] = assay: Antiinflammatory activity in LPS-induced mouse RAW264.7 cells assessed as reduction in IL-1beta activity at 1 microg/ml preincubated with compound for 24 hrs followed by LPS addition for 6 hrs by ELISA method; format: functional, cell-based; details: dose 1.0 µg/ml, time 30.0 hrs
RAW264.7 [9] = assay: Antiinflammatory activity in LPS-induced mouse RAW264.7 cells assessed as effect on NO level at 1 microg/ml preincubated with compound for 24 hrs followed by LPS addition for 6 hrs by DAF-FM diacetate probe based analysis; format: functional, cell-based; details: dose 1.0 µg/ml, time 30.0 hrs
RAW264.7 [10] = assay: Antiinflammatory activity in LPS-induced mouse RAW264.7 cells assessed as effect on IL-1beta level at 1 microg/ml preincubated with compound for 24 hrs followed by LPS addition for 6 hrs by ELISA method; format: functional, cell-based; details: dose 1.0 µg/ml, time 30.0 hrs
RAW264.7 [11] = assay: Antiinflammatory activity in LPS-induced mouse RAW264.7 cells assessed as effect on TNF-alpha level at 1 microg/ml preincubated with compound for 24 hrs followed by LPS addition for 6 hrs by ELISA method; format: functional, cell-based; details: dose 1.0 µg/ml, time 30.0 hrs
Mus musculus [12] = assay: Anti-inflammatory activity against collagenase-induced osteoarthritis C57BL/6J mouse model assessed as reduction in mankin score in articular cartilage at 1 mg/kg, ip measured on day 14; format: functional, organism-based; details: time 14.0 day
[13] = Stability in human serum measured upto 6 hrs by RP-HPLC analysis; format: ADME, cell-free

| SMILES | Activity (RAW264.7 [1]) | Activity (RAW264.7 [2]) | viability at 24 h, 1 microg/ml [4] | Activity (RAW264.7 [7]) | also measured |
| --- | --- | --- | --- | --- | --- |
| CSCC[C@H](N)C(=O)N[C@@H](CCC(N)=O)C(=O)N[C@@H](CS)C(=O)N[C@@H](CC(N)=O)C(=O)N[C@H](CO)C(N)=O | Active | inactive | ~80% | – | Activity (RAW264.7 [3]): Active |
| CSCCC(N)C(=O)N[C@@H](CCC(N)=O)C(=O)N(C)[C@@H](CS)C(=O)N[C@@H](CC(N)=O)C(=O)N[C@@H](CO)C(N)=O (some centres undefined) (H-[ξM]Q[NMeC]NS-NH2) | Active | Active | ~80% | – | Activity (RAW264.7 [5]): inactive |
| CNC(CCSC)C(=O)N[C@@H](CCC(N)=O)C(=O)N[C@@H](CS)C(=O)N[C@@H](CC(N)=O)C(=O)N[C@@H](CO)C(N)=O (some centres undefined) (H-[ξNMeM]QCNS-NH2) | Active | Active | ~80% | – | Activity (RAW264.7 [5]): inactive |
| COCCOCCOCCOCCOCCOCCOCCSC[C@@H](NC(=O)[C@@H](CCC(N)=O)NC(=O)[C@H](N)CCSC)C(=O)N[C@H](CC(N)=O)C(=O)N[C@H](CO)C(N)=O | Active | Active | 88.8% | – | Activity (Mus musculus [6]): Active; Activity (RAW264.7 [5]): Active |
| CSCC[C@H](N)C(=O)N[C@H]1CCC(=O)NCCCC[C@@H](C(=O)N[C@@H](CO)C(N)=O)NC(=O)[C@H](CS)NC1=O (H-MECKS-NH2; lactam 2-4) | – | – | ~80% | inactive | – |
| COCCOCCOCCC(=O)N[C@@H](CCSC)C(=O)N[C@@H](CCC(N)=O)C(=O)N[C@@H](CS)C(=O)N[C@@H](CC(N)=O)C(=O)N[C@@H](CO)C(N)=O ({Propanoyl(3-(MeO(CH2CH2O)2))}-MQCNS-NH2) | – | – | ~80% | – | Activity (RAW264.7 [8]): Active; Activity (RAW264.7 [9]): Active; Activity (RAW264.7 [10]): Active; Activity (RAW264.7 [11]): Active |
| CSCC[C@H](N)C(=O)N[C@H]1CCCCNC(=O)C[C@@H](C(=O)N[C@@H](CO)C(N)=O)NC(=O)[C@H](CS)NC1=O (H-MKCDS-NH2; lactam 2-4) | inactive | – | ~80% | Active | – |
| COCCOCCOCCOCCOCCOCCOCCC(=O)N[C@@H](CCSC)C(=O)N[C@@H](CCC(N)=O)C(=O)N[C@@H](CS)C(=O)N[C@@H](CC(N)=O)C(=O)N[C@@H](CO)C(N)=O (X1-MQCNS-NH2) | – | – | ~80% | Active | Activity (RAW264.7 [9]): Active; Activity (RAW264.7 [10]): Active; Activity (RAW264.7 [11]): Active |
| CSCC[C@H](NC(C)=O)C(=O)N[C@@H](CCC(N)=O)C(=O)N[C@@H](CS)C(=O)N[C@@H](CC(N)=O)C(=O)N[C@@H](CO)C(N)=O (Ac-MQCNS-NH2) | – | – | ~80% | Active | Activity (RAW264.7 [9]): Active; Activity (RAW264.7 [10]): Active; Activity (RAW264.7 [11]): Active |
| CSCC[C@H](N)C(=O)N[C@@H](CCC(N)=O)C(=O)N[C@@H](CS)C(=O)N[C@@H](CC(N)=O)C(=O)N[C@@H](CO)C(N)=O | Active | – | 82.2% | Active | Activity (Mus musculus [6]): Active; Activity (Mus musculus [12]): Active; Stability [13]: Stable; Activity (RAW264.7 [5]): Active |
| CSCC[C@H](N)C(=O)N[C@H]1CCCNC(=O)CC[C@@H](C(=O)N[C@@H](CO)C(N)=O)NC(=O)[C@H](CS)NC1=O (H-M[Orn]CES-NH2; lactam 2-4) | – | – | 81.9% | Active | Activity (Mus musculus [6]): Active |
| CSCCC(N)C(=O)N(C)[C@@H](CCC(N)=O)C(=O)N[C@@H](CS)C(=O)N[C@@H](CC(N)=O)C(=O)N[C@@H](CO)C(N)=O (some centres undefined) (H-[ξM][NMeQ]CNS-NH2) | Active | Active | 82.9% | – | Activity (Mus musculus [6]): Active; Activity (RAW264.7 [5]): Active |
| CSCC[C@@H](N)C(=O)N[C@@H](CCC(N)=O)C(=O)N[C@@H](CS)C(=O)N[C@@H](CC(N)=O)C(=O)N[C@@H](CO)C(N)=O | Active | – | 86.8% | Active | Activity (Mus musculus [6]): Active; Activity (RAW264.7 [3]): Active |
| COCCOCCOCCOCCOCCC(=O)N[C@@H](CCSC)C(=O)N[C@@H](CCC(N)=O)C(=O)N[C@@H](CS)C(=O)N[C@@H](CC(N)=O)C(=O)N[C@@H](CO)C(N)=O (X2-MQCNS-NH2) | – | – | ~80% | – | Activity (RAW264.7 [8]): Active; Activity (RAW264.7 [9]): Active; Activity (RAW264.7 [10]): Active; Activity (RAW264.7 [11]): Active |
| CSCCC(N)C(=O)N[C@@H](CCC(N)=O)C(=O)N[C@@H](CS)C(=O)N[C@@H](CC(N)=O)C(=O)N(C)[C@@H](CO)C(N)=O (some centres undefined) (H-[ξM]QCN[NMeS]-NH2) | Active | Active | ~80% | – | Activity (RAW264.7 [5]): inactive |
| CSCCC(N)C(=O)N[C@@H](CCC(N)=O)C(=O)N[C@@H](CS)C(=O)N(C)[C@@H](CC(N)=O)C(=O)N[C@@H](CO)C(N)=O (some centres undefined) (H-[ξM]QC[NMeN]S-NH2) | Active | Active | ~80% | – | Activity (RAW264.7 [5]): inactive |
| CSCC[C@H](N)C(=O)N[C@H]1CCCNC(=O)C[C@@H](C(=O)N[C@@H](CO)C(N)=O)NC(=O)[C@H](CS)NC1=O (H-M[Orn]CDS-NH2; lactam 2-4) | – | – | ~80% | Active | – |
| CSCC[C@H](N)C(=O)N[C@H](CCC(N)=O)C(=O)N[C@@H](CS)C(=O)N[C@@H](CC(N)=O)C(=O)N[C@@H](CO)C(N)=O | Active | inactive | ~80% | – | Activity (RAW264.7 [3]): Active |
| CCCCC(=O)N[C@@H](CCSC)C(=O)N[C@@H](CCC(N)=O)C(=O)N[C@@H](CS)C(=O)N[C@@H](CC(N)=O)C(=O)N[C@@H](CO)C(N)=O (Pentanoyl-MQCNS-NH2) | – | – | ~80% | Active | Activity (RAW264.7 [9]): Active; Activity (RAW264.7 [10]): Active; Activity (RAW264.7 [11]): Active |
| CSCC[C@H](N)C(=O)N[C@@H](CCC(N)=O)C(=O)N[C@@H](CS)C(=O)N[C@H](CC(N)=O)C(=O)N[C@@H](CO)C(N)=O | Active | inactive | ~80% | – | Activity (RAW264.7 [3]): Active |
| CSCC[C@H](N)C(=O)N[C@H]1CCCCNC(=O)CC[C@@H](C(=O)N[C@@H](CO)C(N)=O)NC(=O)[C@H](CS)NC1=O (H-MKCES-NH2; lactam 2-4) | – | – | ~80% | Active | Activity (RAW264.7 [5]): inactive |
| CSCC[C@H](N)C(=O)N[C@H]1CCC(=O)NCCC[C@@H](C(=O)N[C@@H](CO)C(N)=O)NC(=O)[C@H](CS)NC1=O (H-MEC[Orn]S-NH2; lactam 2-4) | – | – | ~80% | inactive | – |
| CCCCCCC(=O)N[C@@H](CCSC)C(=O)N[C@@H](CCC(N)=O)C(=O)N[C@@H](CS)C(=O)N[C@@H](CC(N)=O)C(=O)N[C@@H](CO)C(N)=O (Heptanoyl-MQCNS-NH2) | – | – | ~80% | Active | Activity (RAW264.7 [9]): Active; Activity (RAW264.7 [10]): Active; Activity (RAW264.7 [11]): Active |
| CSCC[C@@H](N)C(=O)N[C@H]1CC(=O)NCCCC[C@@H](C(=O)N[C@@H](CO)C(N)=O)NC(=O)[C@H](CS)NC1=O | – | – | ~80% | inactive | – |
| COCCOCCOCCOCCOCCSC[C@@H](NC(=O)[C@@H](CCC(N)=O)NC(=O)[C@H](N)CCSC)C(=O)N[C@H](CC(N)=O)C(=O)N[C@H](CO)C(N)=O | Active | Active | ~80% | – | – |
| COCCOCCOCCSC[C@@H](NC(=O)[C@@H](CCC(N)=O)NC(=O)[C@H](N)CCSC)C(=O)N[C@H](CC(N)=O)C(=O)N[C@H](CO)C(N)=O | Active | Active | ~80% | – | – |
| CSCC[C@H](N)C(=O)N[C@@H](CCC(N)=O)C(=O)N[C@H](CS)C(=O)N[C@@H](CC(N)=O)C(=O)N[C@@H](CO)C(N)=O | Active | – | ~80% | Active | Activity (RAW264.7 [3]): Active |
| CSCC[C@@H](N)C(=O)N[C@H]1CC(=O)NCCC[C@@H](C(=O)N[C@@H](CO)C(N)=O)NC(=O)[C@H](CS)NC1=O | – | – | ~80% | inactive | – |
